The values below come from PubChem BioAssay (NCI).

Test systems include PC-3 prostate; MDA-MB-231 breast; KM20L2 colon; MDA-N; XF 498 CNS.
Assay in all cases: DTP human tumour cell line panel, 48 h

Molecules are shown by their SMILES. Several values for one entry are separate records, joined by “and”; a condition that tells them apart may be missing. Identical values can stand only once.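 Briefly, cells in 96-well plates were exposed to five compound concentrations for 48 h, and endpoints were estimated by linear interpolation. GI50: concentration for 50% inhibition of growth. TGI denotes the concentration required for complete inhibition of growth.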 Where a SMILES comes first, the peptide text is derived from it. The star is where a group is joined. Cbz = O=C(OCc1ccccc1)*; CH2Cl = ClC*

As for `COc1ccc(Nc2nnc(-c3cc(O)ccc3O)s2)cc1`, in the experiment on PC-3 prostate, the GI50 (as a rule, the concentration that inhibits growth by half) was 34.4 µM and the TGI (in general, the concentration giving total growth inhibition) is greater than 50 µM. In the experiment on MDA-MB-231 breast, the GI50 was 9.65 µM and the TGI was found to be 31.1 µM.

Regarding `COc1cc(F)ccc1-c1ncnc(Nc2cccc(CS(C)(=N)=O)c2)n1` (stereo unspecified), the GI50 in the experiment on PC-3 prostate is 1.28 µM; in the experiment on MDA-MB-231 breast, 1.74 µM. The figures for the concentration for total growth inhibition (TGI) with PC-3 prostate and in the experiment on MDA-MB-231 breast were 7.7 µM and greater than 100 µM, respectively.

As to `COc1ccc(-c2nn(-c3ccc(NC(=O)c4ccc(Cl)c(Cl)c4)cc3)cc2-c2ccncc2)cc1Cl`, in the experiment with PC-3 prostate, the GI50 was 2.42 µM and the total growth inhibition concentration (TGI) was greater than 50 µM. Moreover, in the experiment on MDA-MB-231 breast, the GI50 is 0.993 µM and the TGI was 2.96 µM.

`CC1c2c(Cl)nc3ccccc3c2Oc2c1c(Cl)nc1ccccc21`: the TGI with KM20L2 colon was greater than 100 µM.

Consider `O=C(Nc1ccncc1)C(=O)c1cn(S(=O)(=O)c2ccc(F)cc2)c2ccccc12`, for which, in the experiment with PC-3 prostate, the GI50 is 4.45 µM and the TGI was greater than 100 µM. In addition, in the experiment on MDA-MB-231 breast, the GI50 is 5.97 µM and the TGI is greater than 100 µM.

In the case of `CCSc1ncnc2c1ncn2C1OC(CO)C(O)C1O` (stereo unspecified), in the experiment with PC-3 prostate, the GI50 is 0.692 µM and the TGI was greater than 71.3 µM. Further, in the experiment on MDA-MB-231 breast, the GI50 is 0.745 µM and the TGI is greater than 100 µM.

For `CN(C)CC[PH+](c1ccccc1)c1ccccc1.CN(C)CC[PH+](c1ccccc1)c1ccccc1.[Cl-].[Pd+2]`, the GI50 was greater than 100 µM in the experiment on PC-3 prostate, greater than 100 µM with MDA-MB-231 breast and greater than 100000 nM in the experiment on MDA-N. For the same compound, the TGI with PC-3 prostate, in the experiment on MDA-MB-231 breast and in the experiment on MDA-N was greater than 100 µM in each case.

For the compound `Cc1c2c(C#N)nccc2c(C)c2c1c1ccccc1n2Cc1ccccc1`, the TGI in the experiment with PC-3 prostate, in the experiment on MDA-MB-231 breast and in the experiment with MDA-N was greater than 100 µM each time.

Consider `C#C[C@]1(O)CCC2C3CCc4cc(O)ccc4C3CC[C@@]21C` (stereo partly specified), for which, in the experiment on PC-3 prostate, the GI50 is 5.48 µM and the TGI was determined as 42.4 µM. In the experiment with MDA-MB-231 breast, the GI50 is 7.58 µM and the TGI was 47.2 µM.

As to `O=C1/C(=C/c2cccc(Cl)c2Cl)N=C(c2ccccc2)N1C1CC1`, the GI50 in the experiment with PC-3 prostate is 8.85 µM; with MDA-MB-231 breast, 8.05 µM. The TGI in the experiment on PC-3 prostate worked out at 17.2 µM; with MDA-MB-231 breast, 18.3 µM.

As to `COc1ccc2[nH]cc(C3(c4c[nH]c5ccc(OC)cc45)C(=O)Nc4ccc(F)cc43)c2c1`, the figures for the GI50 with PC-3 prostate and in the experiment with MDA-MB-231 breast were 3.13 µM and 1.57 µM, respectively. Also, the figures for the TGI with PC-3 prostate and in the experiment with MDA-MB-231 breast were 16.5 µM and 3.56 µM, respectively.

Consider `Cn1cc(C2=C(c3cn(CCCCO)c4ccccc34)C(=O)NC2=O)c2ccccc21`, for which, in the experiment on PC-3 prostate, the GI50 was 9.38 µM and the TGI is greater than 25 µM. Besides, in the experiment with MDA-MB-231 breast, the GI50 is 17.2 µM and the TGI is greater than 25 µM.

As for `O=C1OCC2=C1C(c1cccc(Br)c1)c1cc3c(cc1N2CCO)CCC3` (stereo unspecified), in the experiment with PC-3 prostate, the GI50 was 0.0864 µM and the TGI was found to be 7.1 µM. Further, in the experiment with MDA-MB-231 breast, the GI50 is 0.191 µM and the TGI turned out to be 1.22 µM.

As for `C=C(C)[C@@H]1CC[C@]2(C)[C@H](CC=C3[C@@H]4CC(C)(C)CC[C@]4(C(N)=O)CC[C@]32C)[C@@]1(C)CCC#N`, in the experiment on PC-3 prostate, the GI50 is 2.37 µM and the TGI was greater than 100 µM. Besides, in the experiment with MDA-MB-231 breast, the GI50 was 3.96 µM and the TGI is greater than 100 µM.

In the case of `CC(C)CC(NC(=O)OCc1ccccc1)C(=O)NC(Cc1ccccc1)C(=O)CCl` (stereo not drawn) (Cbz-Leu-Phe-CH2Cl; configuration not given here), the TGI amounted to 9.41 µM in the experiment on PC-3 prostate, 3.3 µM in the experiment on MDA-MB-231 breast and 3.19 µM in the experiment on MDA-N.

Take `COc1ccc2c(c1)C(=O)c1c-2c(N2CCN(C(=O)CNCCNCCO)CC2)nc2ccccc12`: in the experiment with PC-3 prostate, the GI50 is 5.57 µM and the TGI turned out to be 18.7 µM. Further, in the experiment on MDA-MB-231 breast, the GI50 was 3.23 µM and the TGI is 12.7 µM.

In the case of `CS(=O)(=O)CCNCc1nc(-c2ccc3ncnc(Nc4ccc(OCc5cccc(C(F)(F)F)c5)cc4)c3c2)cs1`, the GI50 with PC-3 prostate was greater than 23.6 µM; in the experiment on MDA-MB-231 breast, 12.6 µM. The concentration for total growth inhibition (TGI) in the experiment with PC-3 prostate and in the experiment with MDA-MB-231 breast was greater than 25 µM throughout.

For the compound `O=C(N[C@@H](c1ccc(Cl)c(Cl)c1)C1CNC1)c1ccc2cnccc2c1`, in the experiment on PC-3 prostate, the GI50 was 0.486 µM and the TGI was 17.2 µM. In addition, in the experiment on MDA-MB-231 breast, the GI50 was 0.639 µM and the TGI was 15 µM.

On to `CC12CP(=O)(c3ccccc3)CC1C2(Cl)Cl` (stereo unspecified), for which the TGI in the experiment on KM20L2 colon and with XF 498 CNS was greater than 100 µM each time.

Turning to `[N-]=[N+]=N[C@H]1C[C@@H](CO)O[C@H]1n1cnc2c(N)ncnc21`, the TGI in the experiment on KM20L2 colon and in the experiment with XF 498 CNS was greater than 100 µM in each case.

`COc1cc(Cn2c(-c3ccccc3)c(Cl)c3c2-c2oncc2CC3)cc(OC)c1`: the GI50 in the experiment with PC-3 prostate is 7.12 µM; with MDA-MB-231 breast it was 11.4 µM. In addition, the TGI in the experiment with PC-3 prostate was greater than 100 µM; with MDA-MB-231 breast, 44.9 µM.

On to `COc1cccc(C2=NC(C(C)C)CO2)c1` (stereo unspecified), for which the TGI in the experiment with KM20L2 colon and in the experiment on XF 498 CNS was greater than 100 µM each time.

For the compound `Cc1nn(-c2ccc(Cl)cc2)c2nc3c(nc12)C(=O)c1ccccc1-3`, in the experiment with MDA-MB-231 breast, the GI50 was 82.7 µM and the TGI was greater than 100 µM.

Turning to `COc1ccc(C(=O)/C=C/c2cc(-c3cc(OC)c(OC)c(OC)c3)n[nH]2)cc1OC`, the GI50 in the experiment on PC-3 prostate is 1.36 µM; in the experiment with MDA-MB-231 breast, 1.48 µM. The TGI was 2.8 µM with PC-3 prostate and 3.06 µM in the experiment with MDA-MB-231 breast.

For `C=C(Cl)C(Br)(CCl)CCC(Br)C(C)(C)Cl` (stereo unspecified), the TGI is 14.2 µM in the experiment on PC-3 prostate; 2.32 µM and 3.77 µM in the experiment on MDA-MB-231 breast; 7.34 µM and 4.3 µM in the experiment on MDA-N. In addition, the GI50 was 2.02 µM with MDA-MB-231 breast and 2050 nM in the experiment with MDA-N.

In the case of `COc1cc2c3c(n(C)c(=O)c2cc1OC)-c1cc2c(cc1/C3=C\CN)OCO2`, in the experiment with PC-3 prostate, the GI50 is 7.03 µM and the TGI is greater than 100 µM. For the same compound, in the experiment with MDA-MB-231 breast, the GI50 was 5.8 µM and the TGI is greater than 35.4 µM.

On to `Cc1[nH]c2ccccc2c1C(=O)/C=C/c1ccccc1O`, for which the TGI in the experiment with KM20L2 colon and with XF 498 CNS was greater than 100 µM in each case.
